This note sets out measurements from patent publication US8895592B2, “Compounds as cannabinoid receptor ligands” (priority 2008, dated 2014).

Assay [1] has as its target human CB2 receptors (Homo sapiens (Human), UniProt P34972). Kind of assay: human CB2 radioligand binding assay ([3H]CP 55,940 competition). The following applies: HEK293 membranes, 0.5 nM [3H]CP 55,940. The protocol:
HEK293 cells stably expressing human CB2 receptors were grown until a confluent monolayer was formed. Briefly, the cells were harvested and homogenized in TE buffer (50 mM Tris-HCl, 1 mM MgCl2, and 1 mM EDTA) using a polytron for 2×10 second bursts in the presence of protease inhibitors, followed by centrifugation at 45,000×g for 20 minutes. The final membrane pellet was re-homogenized in storage buffer (50 mM Tris-HCl, 1 mM MgCl2, and 1 mM EDTA and 10% sucrose) and frozen at −78° C. until used. Saturation binding reactions were initiated by the addition of membrane preparation (protein concentration of 5 μg/well for human CB2) into wells of a deep well plate containing [^3H]CP 55,940 (120 Ci/mmol, a nonselective CB agonist commercially available from Tocris) in assay buffer (50 mM Tris, 2.5 mM EDTA, 5 mM MgCl2, and 0.5 mg/mL fatty acid free BSA, pH 7.4). After 90 min incubation at 30° C., binding reaction was terminated by the addition of 300 μL/well of cold assay buffer followed by rapid vacuum filtration through a UniFilter-96 GF/C filter plates (pre-soaked in 1 mg/mL BSA for 2 hours). The bound activity was counted in a TopCount using Microscint-20. Saturation experiments were conducted with twelve concentrations of [^3H]CP 55,940 ranging from 0.01 to 8 nM. Competition experiments were conducted with 0.5 nM [^3H]CP 55,940 and five concentrations (0.01 nM to 10 μM) of displacing ligands. The addition of 10 μM unlabeled CP 55,940 (Tocris, Ellisville, Mo.) was used to assess nonspecific binding.

The target of assay [2] is T1, rat CB2 receptors (Rattus norvegicus (Rat), UniProt Q9QZN9). Kind of assay: rat CB2 cyclase functional assay (HitHunter cAMP). In kind it is cell-based. Particulars: HEK cells, forskolin 18 μM. The protocol:
The cyclase functional assays were performed using the HitHunter™ cAMP assay kit from DiscoveRx (Fremont, Calif.) according to vendor's protocol. Briefly, HEK cells expressing CB2 or CB1 receptors (rat or human) were detached using cell dissociation buffer (Invitrogen, Carlsbad, Calif.), dispersed and placed in suspension at 10,000 cells per well in 96 well plates prior to the assay. Cell suspensions were incubated at 37° C. for 20 min with variable concentrations of test ligands and or 10 μM CP 55,940-positive control in the presence of a fixed concentration of forskolin (18 μM for rat CB2 and 37 μM for rat CB1) in Dulbescco's phosphate-buffered saline (Invitrogen, Carlsbad, Calif.) supplemented with bovine serum albumin (0.01% final concentration). The reactions were terminated by the addition of lysis buffer and the luminescence was detected following the procedure according to the manufacturer's instructions. EC50 values were calculated using sigmoidal dose-response curve fitting from Prism (GraphPad).

Assay [3] deals with T1, rat CB2 receptors. Kind of assay: rat CB2 radioligand binding assay ([3H]CP 55,940 competition). The following applies: HEK293 membranes, 0.5 nM [3H]CP 55,940. How it is done:
HEK293 cells stably expressing rat CB2 receptors were grown until a confluent monolayer was formed. Briefly, the cells were harvested and homogenized in TE buffer (50 mM Tris-HCl, 1 mM MgCl2, and 1 mM EDTA) using a polytron for 2×10 second bursts in the presence of protease inhibitors, followed by centrifugation at 45,000×g for 20 minutes. The final membrane pellet was re-homogenized in storage buffer (50 mM Tris-HCl, 1 mM MgCl2, and 1 mM EDTA and 10% sucrose) and frozen at −78° C. until used. Saturation binding reactions were initiated by the addition of membrane preparation (protein concentration of 20 μg/well for rat CB2) into wells of a deep well plate containing [^3H]CP 55,940 (120 Ci/mmol, a nonselective CB agonist commercially available from Tocris) in assay buffer (50 mM Tris, 2.5 mM EDTA, 5 mM MgCl2, and 0.5 mg/mL fatty acid free BSA, pH 7.4). After 45 min incubation at 30° C., binding reaction was terminated by the addition of 300 μl/well of cold assay buffer followed by rapid vacuum filtration through a UniFilter-96 GF/C filter plates (pre-soaked in 1 mg/mL BSA for 2 hours). The bound activity was counted in a TopCount using Microscint-20. Saturation experiments were conducted with twelve concentrations of [^3H]CP 55,940 ranging from 0.01 to 8 nM. Competition experiments were conducted with 0.5 nM [^3H]CP 55,940 and five concentrations of displacing ligands selected from the range of 0.01 nM to 10 μM. The addition of 10 μM unlabeled CP 55,940 (Tocris, Ellisville, Mo.) was used to assess nonspecific binding.

SMILES strings stand for the structures.

Broadly, the Ki is a dissociation constant, usually derived from enzyme kinetics or from competition with a known ligand. What is called EC50 is the concentration needed to bring the measured effect to its halfway point.

Chain of human CB2 receptors (P34972 whole entry): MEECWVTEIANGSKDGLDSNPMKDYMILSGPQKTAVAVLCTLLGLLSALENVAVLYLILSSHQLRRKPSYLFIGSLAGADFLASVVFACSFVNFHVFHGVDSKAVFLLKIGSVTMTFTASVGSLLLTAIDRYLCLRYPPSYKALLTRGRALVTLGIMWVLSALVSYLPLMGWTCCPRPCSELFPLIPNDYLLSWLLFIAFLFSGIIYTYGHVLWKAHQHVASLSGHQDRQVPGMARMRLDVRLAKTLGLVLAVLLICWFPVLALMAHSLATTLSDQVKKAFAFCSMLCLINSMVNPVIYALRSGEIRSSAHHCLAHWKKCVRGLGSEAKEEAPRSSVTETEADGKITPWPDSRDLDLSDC
T1 sequence (Q9QZN9 whole entry): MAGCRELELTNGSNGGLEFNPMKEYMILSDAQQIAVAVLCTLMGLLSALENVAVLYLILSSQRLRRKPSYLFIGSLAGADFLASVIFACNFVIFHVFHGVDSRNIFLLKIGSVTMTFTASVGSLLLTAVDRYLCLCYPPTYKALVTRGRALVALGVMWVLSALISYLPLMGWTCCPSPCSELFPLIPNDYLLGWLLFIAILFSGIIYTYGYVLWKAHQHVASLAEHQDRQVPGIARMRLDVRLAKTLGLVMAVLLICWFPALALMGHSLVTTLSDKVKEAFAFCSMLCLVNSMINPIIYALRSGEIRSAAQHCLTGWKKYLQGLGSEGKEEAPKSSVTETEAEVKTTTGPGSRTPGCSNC

In the case of `CC(C)Cn1cc(C(C)(C)C)s/c1=N\C(=O)c1cc(C(F)(F)F)ccc1OC[C@@H]1CCN1C` [Example 12, N-[(2Z)-5-tert-butyl-3-isobutyl-1,3-thiazol-2(3H)-ylidene]-2-{[(2S)-1-methylazetidin-2-yl]methoxy}-5-(trifluoromethyl)benzamide], the Ki was found to be 37 nM in assay [1] and 26 nM in assay [3]. In assay [2], the EC50 was 3.5 nM.
Regarding `CCCCn1cc(C(C)(C)C)s/c1=N\C(=O)c1cc(C(F)(F)F)ccc1OC[C@@H]1CCCN1C` [Example 9, N-[(2Z)-3-butyl-5-tert-butyl-1,3-thiazol-2(3H)-ylidene]-2-{[(2S)-1-methylpyrrolidin-2-yl]methoxy}-5-(trifluoromethyl)benzamide], the Ki in assay [1] was found to be 9.2 nM; in assay [3] it was 7.7 nM. Also, the EC50 in assay [2] was determined as 0.97 nM.
With `CCCCn1/c(=N/C(=O)c2cc(C(F)(F)F)ccc2OCCNC(C)=O)sc2ccncc21` [Example 25, 2-[2-(acetylamino)ethoxy]-N-[(2Z)-3-butyl[1,3]thiazolo[4,5-c]pyridin-2(3H)-ylidene]-5-(trifluoromethyl)benzamide], the Ki in assay [1] worked out at 1.5 nM; in assay [3], 3.6 nM. Moreover, the EC50 in assay [2] was 0.11 nM.
For `CC(C)Cn1cc(C(C)(C)C)s/c1=N\C(=O)c1cc(Cl)ccc1OCC1CCO1` (centres unmarked) [Example 4, N-[(2Z)-5-tert-butyl-3-isobutyl-1,3-thiazol-2(3H)-ylidene]-5-chloro-2-(oxetan-2-ylmethoxy)benzamide], the Ki in assay [1] was determined as 9 nM; in assay [3] it was 5.2 nM. Also, in assay [2], the EC50 was 0.23 nM.
The matching figures for `CN1CCC[C@H]1COc1ccc(C(F)(F)F)cc1C(=O)/N=c1\sc(C(C)(C)C)cn1CC1(O)CCC1` [Example 11, N-[(2Z)-5-tert-butyl-3-[(1-hydroxycyclobutyl)methyl]-1,3-thiazol-2(3H)-ylidene]-2-{[(2S)-1-methylpyrrolidin-2-yl]methoxy}-5-(trifluoromethyl)benzamide]: 95 nM, 32 nM and 0.41 nM.
The matching figures for `CC(C)Cn1cc(C(C)(C)C)s/c1=N\C(=O)c1cc(C(F)(F)F)ccc1OC[C@@H]1CCCN1C` [Example 5, N-[(2Z)-5-tert-butyl-3-isobutyl-1,3-thiazol-2(3H)-ylidene]-2-{[(2S)-1-methylpyrrolidin-2-yl]methoxy}-5-(trifluoromethyl)benzamide]: 39 nM, 18 nM and 1.2 nM.
Regarding `CCCCn1cc(C(C)(C)C)s/c1=N\C(=O)c1cc(Cl)ccc1OCC(N)=O` [Example 2, 2-(2-amino-2-oxoethoxy)-N-[(2Z)-3-butyl-5-tert-butyl-1,3-thiazol-2(3H)-ylidene]-5-chlorobenzamide], the results for the Ki in assay [1] and in assay [3] were 3.1 nM and 1.1 nM, respectively. Further, the EC50 in assay [2] turned out to be 0.07 nM.
The matching figures for `CC(C)Cn1cc(C(C)(C)C)s/c1=N\C(=O)c1cc(C(F)(F)F)ccc1OCCN1CCCC1` [Example 7, N-[(2Z)-5-tert-butyl-3-isobutyl-1,3-thiazol-2(3H)-ylidene]-2-(2-pyrrolidin-1-ylethoxy)-5-(trifluoromethyl)benzamide]: 32 nM, 12 nM and 1.3 nM.
For the compound `CC(=O)OCCOc1ccc(C(F)(F)F)cc1C(=O)/N=c1\sc(C(C)(C)C)cn1CC(C)C` [Example 18, 2-[2-({[(2Z)-5-tert-butyl-3-isobutyl-1,3-thiazol-2(3H)-ylidene]amino}carbonyl)-4-(trifluoromethyl)phenoxy]ethyl acetate], the Ki in assay [1] was 16 nM; in assay [3] it was 1.4 nM. Moreover, in assay [2], the EC50 came out at 0.19 nM.
Turning to `C=C=CCn1cc(C(C)(C)C)s/c1=N\C(=O)c1cc(C(F)(F)F)ccc1ONC(C)(C)C` [Example 31, N-[(2Z)-3-buta-2,3-dienyl-5-tert-butyl-1,3-thiazol-2(3H)-ylidene]-2-[(tert-butylamino)oxy]-5-(trifluoromethyl)benzamide], the Ki stood at 17 nM in assay [1] and 1.7 nM in assay [3].
